# In patent US20250084056A1, “SUBSTITUTED OXOISOINDOLINYL PIPERIDINE-2,6-DIONE COMPOUNDS” (BRISTOL-MYERS SQUIBB COMPANY, priority 2023, published 2025):
# Legend:
# Type in all cases: cell-based
# Phospho-Rb (Ser807/811) = test: Phospho-Retinoblastoma (pRB) Cellular Assay; conditions: Homo sapiens, OVCAR-3, NIH OVCAR3 cells, 24 hours; for IC50: concentration giving 50% response; for Emax: maximum response, reference compound at 10 μM = 100%, read-out: pRB Ymax
# In short: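 OVCAR3 cells seeded overnight, then dosed with serial dilutions for 24 h at 37° C. Lysed with kit mix plus phosphatase inhibitor, ≥4 h at room temperature, read on EnVision; 100% response set by reference compound at 10 μM, giving IC50 and Ymax.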
# GSPT1 = GSPT1 (Homo sapiens, UniProt P15170+Q96SW2); test: GSPT1 Cellular Degradation Assay (DF15-GSPT1-ePL); design: expressed in transfected cells; conditions: DF15-GSPT1-ePL cells, 20 hours
# In short: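 Human DF15 cells co-expressing a GSPT1–ePL fusion were treated with compound in RPMI 1640/10% FBS for 20 h at 37 °C. GSPT1 level was read by enzyme-fragment-complementation luminescence after 60 min with detection reagent. The reference degrader at […] defined 75% response; DC50 and Dmax were reported.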
# Cyclin E1 = Cyclin E1 (Homo sapiens, UniProt P24864+Q96SW2); test: Cyclin E1 Cellular Degradation Assay (MSD); design: endogenous in cells; host or cells: OVCAR3; conditions: for DC50 / Dmax: Cyclin E1 cellular degradation; for Dmax: maximum degradation; for Ratio of GSPT1 DC50/Cyclin E1 DC50: selectivity for degradation of Cyclin E1 over GSPT1
# In short: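 OVCAR3 cells treated with compound for 24 h at 37 °C, lysed, and cyclin E1 measured by MSD sandwich immunoassay (rabbit capture, mouse detection anti-CCNE1). Reference degrader at […] defined 110% response; DC50 and Dmax derived from response.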
# Sequence of Cyclin E1 (P24864 whole entry): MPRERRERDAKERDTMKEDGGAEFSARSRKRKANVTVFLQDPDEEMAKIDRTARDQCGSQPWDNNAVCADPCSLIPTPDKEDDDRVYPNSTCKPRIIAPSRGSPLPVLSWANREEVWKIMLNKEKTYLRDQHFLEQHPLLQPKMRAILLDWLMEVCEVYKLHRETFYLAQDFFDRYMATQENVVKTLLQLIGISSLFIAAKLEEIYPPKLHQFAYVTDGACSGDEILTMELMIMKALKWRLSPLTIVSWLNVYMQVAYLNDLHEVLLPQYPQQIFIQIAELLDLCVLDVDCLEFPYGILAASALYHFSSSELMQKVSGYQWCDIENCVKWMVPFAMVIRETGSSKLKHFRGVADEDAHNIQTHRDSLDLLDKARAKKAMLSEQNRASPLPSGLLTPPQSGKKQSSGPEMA
# Sequence of Cyclin E1 (Q96SW2 whole entry): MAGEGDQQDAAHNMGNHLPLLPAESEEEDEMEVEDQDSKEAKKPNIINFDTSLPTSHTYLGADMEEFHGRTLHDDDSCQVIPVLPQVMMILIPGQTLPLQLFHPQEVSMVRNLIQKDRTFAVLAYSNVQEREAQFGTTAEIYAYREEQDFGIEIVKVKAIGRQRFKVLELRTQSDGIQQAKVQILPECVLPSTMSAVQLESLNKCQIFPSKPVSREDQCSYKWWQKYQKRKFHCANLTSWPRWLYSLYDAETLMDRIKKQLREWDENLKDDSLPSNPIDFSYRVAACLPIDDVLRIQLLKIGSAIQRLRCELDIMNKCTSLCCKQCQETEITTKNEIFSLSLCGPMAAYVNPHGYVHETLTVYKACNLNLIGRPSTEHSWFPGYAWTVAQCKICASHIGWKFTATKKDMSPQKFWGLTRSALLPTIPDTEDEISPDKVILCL
# Sequence of Cyclin E1 (Q16531 whole entry partner): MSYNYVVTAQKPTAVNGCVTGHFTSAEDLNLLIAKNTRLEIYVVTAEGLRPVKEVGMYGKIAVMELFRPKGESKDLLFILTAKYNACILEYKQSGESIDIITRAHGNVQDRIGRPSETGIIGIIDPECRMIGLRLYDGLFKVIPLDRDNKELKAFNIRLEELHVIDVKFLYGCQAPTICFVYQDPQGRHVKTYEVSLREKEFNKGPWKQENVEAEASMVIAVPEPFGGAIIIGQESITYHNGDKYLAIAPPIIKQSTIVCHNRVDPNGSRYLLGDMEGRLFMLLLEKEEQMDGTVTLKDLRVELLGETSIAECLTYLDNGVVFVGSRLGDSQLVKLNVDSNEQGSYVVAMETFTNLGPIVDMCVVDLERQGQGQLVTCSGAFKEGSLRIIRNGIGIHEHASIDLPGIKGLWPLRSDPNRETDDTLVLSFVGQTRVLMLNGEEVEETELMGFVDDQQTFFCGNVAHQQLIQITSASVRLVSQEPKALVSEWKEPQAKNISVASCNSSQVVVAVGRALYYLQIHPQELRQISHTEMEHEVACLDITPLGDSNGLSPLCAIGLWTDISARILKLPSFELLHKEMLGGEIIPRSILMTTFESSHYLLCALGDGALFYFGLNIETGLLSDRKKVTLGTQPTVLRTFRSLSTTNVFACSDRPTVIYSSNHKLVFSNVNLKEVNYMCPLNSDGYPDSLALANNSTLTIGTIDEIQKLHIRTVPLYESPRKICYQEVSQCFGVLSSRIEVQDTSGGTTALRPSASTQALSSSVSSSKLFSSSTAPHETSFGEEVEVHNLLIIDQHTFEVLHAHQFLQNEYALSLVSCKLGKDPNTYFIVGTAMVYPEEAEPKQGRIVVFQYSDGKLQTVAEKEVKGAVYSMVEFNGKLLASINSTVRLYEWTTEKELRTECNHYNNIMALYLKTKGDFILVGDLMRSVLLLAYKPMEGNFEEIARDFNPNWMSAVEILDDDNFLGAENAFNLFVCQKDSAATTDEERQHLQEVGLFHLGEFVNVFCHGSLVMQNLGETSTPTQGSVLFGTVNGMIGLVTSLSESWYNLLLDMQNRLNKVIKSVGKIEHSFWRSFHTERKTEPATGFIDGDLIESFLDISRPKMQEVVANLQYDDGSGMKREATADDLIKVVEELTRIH
# Sequence of GSPT1 (P15170 whole entry, the tested form may be a part): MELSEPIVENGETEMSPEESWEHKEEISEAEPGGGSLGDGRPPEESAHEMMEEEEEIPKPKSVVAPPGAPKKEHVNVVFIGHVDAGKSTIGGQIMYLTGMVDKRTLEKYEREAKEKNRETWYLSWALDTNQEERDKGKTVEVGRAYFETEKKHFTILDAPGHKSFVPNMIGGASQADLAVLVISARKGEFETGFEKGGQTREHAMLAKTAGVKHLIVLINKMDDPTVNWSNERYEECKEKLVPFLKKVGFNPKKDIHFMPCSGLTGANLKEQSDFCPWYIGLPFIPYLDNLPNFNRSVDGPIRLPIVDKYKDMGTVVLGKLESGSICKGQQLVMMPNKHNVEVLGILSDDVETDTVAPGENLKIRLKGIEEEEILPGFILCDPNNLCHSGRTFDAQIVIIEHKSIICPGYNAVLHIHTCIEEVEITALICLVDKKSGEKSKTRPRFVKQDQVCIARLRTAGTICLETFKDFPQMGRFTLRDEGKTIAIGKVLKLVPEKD
# Sequence of GSPT1 (Q96SW2 whole entry, the tested form may be a part): as the sequence (Q96SW2 whole entry) above
# Sequence of GSPT1 (Q16531 whole entry partner, the tested form may be a part): as the sequence (Q16531 whole entry partner) above
IC50 (Phospho-Rb (Ser807/811)),DC50 (GSPT1),Dmax (GSPT1),DC50 (Cyclin E1),Dmax (Cyclin E1),Ratio of GSPT1 DC50/Cyclin E1 DC50 (Cyclin E1),SMILES,Emax (Phospho-Rb (Ser807/811))
73 nM,> 14000 nM,40%,181 nM,115%,>77,"COc1c(COC(=O)Nc2ccc(Oc3ccccc3Cl)cc2)ccc2c1C(=O)N(C1CCC(=O)NC1=O)C2 (centres unmarked) [Example 80, [2-(2,6-dioxopiperidin-3-yl)-4-methoxy-3-oxo-2,3-dihydro-1H-isoindol-5-yl]methyl N-[4-(2-chlorophenoxy)phenyl]carbamate]",119%
100 nM,> 14000 nM,45%,110 nM,103%,>127,"COc1c(COC(=O)Nc2ccc(Oc3ccc(F)cc3)cc2F)ccc2c1C(=O)N(C1CCC(=O)NC1=O)C2 (centres unmarked) [Example 28, [2-(2,6-dioxopiperidin-3-yl)-4-methoxy-3-oxo-2,3-dihydro-1H-isoindol-5-yl]methyl N-[2-fluoro-4-(4-fluorophenoxy)phenyl]carbamate]",106%
809 nM,> 14000 nM,8%,1630 nM,85%,>9,"COc1cc(F)c(F)cc1Oc1ccc(NC(=O)OCc2ccc3c(c2OC)C(=O)N(C2CCC(=O)NC2=O)C3)c(C)c1 (centres unmarked) [Example 33, [2-(2,6-dioxopiperidin-3-yl)-4-methoxy-3-oxo-2,3-dihydro-1H-isoindol-5-yl]methyl N-[4-(4,5-difluoro-2-methoxyphenoxy)-2-methylphenyl]carbamate]",87%
27 nM,> 14000 nM,5%,17 nM,110%,>847,"O=C1CCC(N2Cc3ccc(COC(=O)Nc4ccc(Oc5ccc(F)cc5)cc4F)c(OC4CCOCC4)c3C2=O)C(=O)N1 (centres unmarked) [Example 135, [2-(2,6-dioxopiperidin-3-yl)-4-(oxan-4-yloxy)-3-oxo-2,3-dihydro-1H-isoindol-5-yl]methyl N-[2-fluoro-4-(4-fluorophenoxy)phenyl]carbamate]",148%
363 nM,> 14000 nM,43%,59 nM,108%,>239,"COc1c(COC(=O)Nc2ccc(Oc3ccc(F)c(Cl)c3)cc2)ccc2c1C(=O)N(C1CCC(=O)NC1=O)C2 (centres unmarked) [Example 14, [2-(2,6-dioxopiperidin-3-yl)-4-methoxy-3-oxo-2,3-dihydro-1H-isoindol-5-yl]methyl N-[4-(3-chloro-4-fluorophenoxy)phenyl]carbamate]",96%
38 nM,> 14000 nM,8%,47 nM,112%,>296,"O=C1CCC(N2Cc3ccc(COC(=O)Nc4ccc(Oc5ccc(F)c(F)c5)cc4F)c(O[C@@H]4CCCOC4)c3C2=O)C(=O)N1 (stereo partly drawn) [Example 146, [2-(2,6-dioxopiperidin-3-yl)-4-[(3R)-oxan-3-yloxy]-3-oxo-2,3-dihydro-1H-isoindol-5-yl]methyl N-[4-(3,4-difluorophenoxy)-2-fluorophenyl]carbamate]",133%
31 nM,> 14000 nM,10%,71 nM,108%,>196,"O=C1CCC(N2Cc3ccc(COC(=O)Nc4ccc(Oc5ccc(F)c(F)c5)cc4)c(OC4CCCC4)c3C2=O)C(=O)N1 (centres unmarked) [Example 151, [4-(cyclopentyloxy)-2-(2,6-dioxopiperidin-3-yl)-3-oxo-2,3-dihydro-1H-isoindol-5-yl]methyl N-[4-(3,4-difluorophenoxy)phenyl]carbamate]",113%
109 nM,> 14000 nM,42%,273 nM,111%,>51,"COc1c(COC(=O)Nc2ccc(Oc3cc(F)c(F)cc3F)cc2)ccc2c1C(=O)N(C1CCC(=O)NC1=O)C2 (centres unmarked) [Example 44, [2-(2,6-dioxopiperidin-3-yl)-4-methoxy-3-oxo-2,3-dihydro-1H-isoindol-5-yl]methyl N-[4-(2,4,5-trifluorophenoxy)phenyl]carbamate]",111%
69 nM,> 14000 nM,46%,139 nM,111%,>101,"COc1cc(Oc2cccc(F)c2)ccc1NC(=O)OCc1ccc2c(c1OC)C(=O)N(C1CCC(=O)NC1=O)C2 (centres unmarked) [Example 48, [2-(2,6-dioxopiperidin-3-yl)-4-methoxy-3-oxo-2,3-dihydro-1H-isoindol-5-yl]methyl N-[4-(3-fluorophenoxy)-2-methoxyphenyl]carbamate]",108%
89 nM,> 14000 nM,35%,39 nM,108%,>355,"COc1c(COC(=O)Nc2ccc(Oc3cccc(F)c3)cc2)ccc2c1C(=O)N(C1CCC(=O)NC1=O)C2 (centres unmarked) [Example 4, [2-(2,6-dioxopiperidin-3-yl)-4-methoxy-3-oxo-2,3-dihydro-1H-isoindol-5-yl]methyl N-[4-(3-fluorophenoxy)phenyl]carbamate]",109%
354 nM,> 14000 nM,25%,327 nM,109%,>43,"COc1c(COC(=O)Nc2ccc(Oc3ccc(F)c(C)c3)cc2C)ccc2c1C(=O)N(C1CCC(=O)NC1=O)C2 (centres unmarked) [Example 82, [2-(2,6-dioxopiperidin-3-yl)-4-methoxy-3-oxo-2,3-dihydro-1H-isoindol-5-yl]methyl N-[4-(4-fluoro-3-methylphenoxy)-2-methylphenyl]carbamate]",97%
287 nM,> 14000 nM,25%,198 nM,106%,>71,"COc1c(COC(=O)Nc2ccc(Oc3cc(F)c(F)cc3C)cc2F)ccc2c1C(=O)N(C1CCC(=O)NC1=O)C2 (centres unmarked) [Example 94, [2-(2,6-dioxopiperidin-3-yl)-4-methoxy-3-oxo-2,3-dihydro-1H-isoindol-5-yl]methyl N-[4-(4,5-difluoro-2-methylphenoxy)-2-fluorophenyl]carbamate]",107%
299 nM,> 14000 nM,24%,417 nM,96%,>34,"COc1c(COC(=O)Nc2ccc(Oc3cc(Cl)cc(Cl)c3)cc2F)ccc2c1C(=O)N(C1CCC(=O)NC1=O)C2 (centres unmarked) [Example 118, [2-(2,6-dioxopiperidin-3-yl)-4-methoxy-3-oxo-2,3-dihydro-1H-isoindol-5-yl]methyl N-[4-(3,5-dichlorophenoxy)-2-fluorophenyl]carbamate]",105%
73 nM,> 14000 nM,43%,87 nM,110%,>160,"COc1c(COC(=O)Nc2ccc(Oc3cccc(Cl)c3Cl)cc2F)ccc2c1C(=O)N(C1CCC(=O)NC1=O)C2 (centres unmarked) [Example 116, [2-(2,6-dioxopiperidin-3-yl)-4-methoxy-3-oxo-2,3-dihydro-1H-isoindol-5-yl]methyl N-[4-(2,3-dichlorophenoxy)-2-fluorophenyl]carbamate]",107%
